Reference: ChEMBL document CHEMBL5034025 (Eur J Med Chem, 2021)

Molecular target: Glutaminyl-peptide cyclotransferase (Homo sapiens, UniProt Q16769)
Assay: Inhibition of human recombinant glutaminyl cyclase using H-Gln-AMC hydrobromide as substrate measured after 15 mins by fluorimetry

Chain of Glutaminyl-peptide cyclotransferase (Q16769 whole entry): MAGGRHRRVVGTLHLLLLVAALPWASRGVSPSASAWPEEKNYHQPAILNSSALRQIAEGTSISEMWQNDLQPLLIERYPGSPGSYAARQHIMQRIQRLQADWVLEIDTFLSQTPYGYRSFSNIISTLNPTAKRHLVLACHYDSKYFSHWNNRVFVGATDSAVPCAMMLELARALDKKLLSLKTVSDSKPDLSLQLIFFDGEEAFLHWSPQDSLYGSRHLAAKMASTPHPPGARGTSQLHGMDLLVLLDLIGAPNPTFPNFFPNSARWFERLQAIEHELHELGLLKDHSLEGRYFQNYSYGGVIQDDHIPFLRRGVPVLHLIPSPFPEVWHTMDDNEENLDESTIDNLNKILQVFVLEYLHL

COc1ccc(N(C(=S)NCCCn2cncc2C)C2CCN(C)CC2)cc1OC
IC50: 6.1 nM
